Laboratory results: patent publication US20260263421A1, “Method of Mitigating Radiation Injury with Geranylgeranyl Transferase Inhibitors” (BioVentures, LLC, priority 2022, published 2026)

Tests used:
[1] = Safe dose in humans (scientific literature); format: in vivo, human; settings: body surface conversion factor; 54 mg/kg in humans
Experimental: Based on scientific literature, it is understood that GGTi-2418 can be administered safely to humans in doses up to 2,060 mg/m^2 (54 mg/kg body weight) on days 1-5 of each 21-day cycle. By using a body surface conversion factor, 54 mg/kg in humans compares to 660 mg/kg in mice. In humans, GGTi can generally be administered in an effective amount with a dose escalation from about 200 mg/m^2 to 2060 mg/m^2 per day on days 1-5 of each 21-day cycle. In rats, the maximum tolerated dose for GGTi is 200 mg/kg for a single dosing or 150 mg/kg/day for 7 consecutive days. In addition to intraperitoneal administration, oral gavage, intravenous infusion, and subcutaneous administration are other acceptable modes of administration. While GGTi-298 and GGTi-2133 are the preferred GGTis in the method of the present invention, use of other GGTis are expected to show the same effects although the magnitude of the effects may not be as great.

[2] = days 1-5 of each 21-day cycle; cited from earlier work
[3] = tested on: small intestine of male C57BL/6J mice after 12 Gy PBI; test: 12 Gy γ-ray partial body irradiation (PBI) mouse model, intestinal injury and body weight at 2 weeks; format: in vivo
Description: In addition, GGTi-298 (commercially available, MedChemExpress, Monmouth Junction, NJ) mitigated adverse effects of 12 Gy γ-ray PBI on villus height, crypt depth and crypt width. […] This bacterium is inversely associated with obesity, diabetes, inflammation and metabolic disorders. Lastly, PBI-induced increases in the percentage of Turicibacter and Clostridium species were mitigated by GGTi-2133. Several Clostridium species are known to be pathogenic, while an increase in Turicibacter depletes CD8+ lymphocytes in the gut, which can adversely affect gut immune function.
Data are represented as mean+/−standard deviation (SD; n=5 to 8 mice per group). “PBI” refers to partial body irradiation, and “Sham” refers to no PBI. The notations “a & b” refer to statistically significant difference from sham-irradiation and PBI, respectively. […] Both sham-irradiated mice and the PBI group received intraperitoneal administration of vehicle. […]
FIGS. 5A-5D are photomicrographs showing olfactomedin 4 (OLFM4) staining in the crypts of sham irradiated vehicle treated mice (FIGS. 5A), 12 Gy PBI plus vehicle treated mice (FIGS. […] 5D). Colors represent staining intensities: yellow (dark), red (medium), and green (weak). FIG. 5E is a bar graph showing the average staining intensity for dark, medium, and weak immunoreactivity obtained by analyzing 10 randomly selected crypts under 100× magnification from each mouse. Data are presented as mean+/−SD (n=5 to 8). The notation “a & b” refer to statistically significant difference from sham and PBI, respectively.
FIG. 6A is an H&E stained small intestinal section (20× magnification) to indicate how the villus height, crypt depth, and crypt width were measured with computerized analysis. […] Data are represented as mean+/−SD. The notation “a & b” refer to statistically significant difference from sham and PBI, respectively. Both sham-irradiated mice and the PBI group received intraperitoneal administration of vehicle.
Villus height and crypt depth were measured in 30 randomly selected villi and crypts (20× magnification), MSA was measured in 5 randomly selected areas (20× magnification), and enterocyte length and the length of their nucleus were measured in 3 enterocytes/villus in 10 villi (100× magnification) for each mouse.
Neutrophils and lymphocytes were scored under 40× magnification. Macrophages were scored in 30 villi under 100× magnification.
GGTi-2133 treatment increases the number of intestinal proliferating cells after PBI: Two proliferation markers (PCNA and Ki-67) were used. […] Cells were scored under 40× magnification.
Cells were scored under 20× magnification.
GGTi-2133 increases the expression of intestinal stem cell marker olfactomedin 4 (OLFM4) after PBI: The inventors assayed OLFM4 protein with immunohistochemistry and computerized image analysis to classify the immunoreactive regions as “dark,” “medium,” or “weak” based on staining intensity.
GGTi-298 treatment attenuates intestinal structural damage following PBI: In order to ensure another formulation of GGTi provides similar mitigation against intestinal damage following PBI, the inventors used GGTi-298 (MedChemExpress). […] Villus height, and crypt depth and width were measured in 30 randomly selected villi and crypts (20× magnification) for each mouse.

[4] = tested on: LNCaP androgen-sensitive human prostate adenocarcinoma cell line; test: MTT assay of cell proliferation and metabolic rate, with or without 2 Gy radiation; format: cell-based
Experimental: (§1) Human pancreatic cancer cell lines (PANC-1, BxPC-3, PSN-1) and a human prostate cancer cell line (LNCaP) were cultured in vitro at 37° C. and 5% CO2 and incubated with GGTi-2133 at 3 different concentrations. Cell proliferation and metabolic rate were measured with an MTT assay once a day for a total of 4 days. GGTi-2133 reduced the cell proliferation rate in all 4 cell lines in a dose-dependent manner. […] Finally, GGTi-2133 reduced the metabolic activity in LNCaP cells exposed to ionizing radiation.
(§2) FIG. 10F is a bar graph showing cell proliferation and metabolic rate in the LNCaP cell line were reduced to a greater extent after combined treatment with 2 Gy radiation plus GGTi-2133 treatment, in comparison to singular treatment with either 2 Gy radiation or GGTi-2133. Data are represented as mean+/−SD (n=4).

[5] = tested on: cecal content microbiome of male C57BL/6J mice; test: Microbiome analysis of cecal content on day 3.5 after 12 Gy PBI; format: in vivo, mouse; settings: 2.5 mg/kg at 24 and 72 h
Experimental: FIGS. 9A-9C are pie charts showing the distribution of different bacterial strains in the cecal content of sham-irradiated vehicle treated mice (FIGS. 9A), 12 Gy PBI plus vehicle treated mice (FIG. 9B), and mice treated with […] and 2.5 mg/kg GGTi-2133 in two administrations (FIG. 9C).
GGTi-2133 alters the percent of 3 bacterial species in the cecal content of mice on day 3.5 after PBI: Male C57BL/6J mice were exposed to 12 Gy PBI and administered GGTi-2133 (2.5 mg/kg) at 24 hours and 72 hours after irradiation. A sample of cecal content was aseptically collected 3.5 days after PBI. […] There were 8 mice in each group. […] GGTi-2133 increased the percentage of Akkermansia muciniphila in irradiated mice. The percentage of Turicibacter and Clostridium species were increased in PBI plus vehicle treated mice as compared to sham-irradiated vehicle-treated mice. The percentage of Turicibacter and Clostridium species were reduced in PBI plus GGTi-2133 treated mice compared to PBI plus vehicle treated mice.

[6] = tested on: PSN-1 human pancreatic cancer cell line; test: MTT assay of cell proliferation and metabolic rate; format: cell-based; settings: 3 concentrations, once a day for 4 days, time-dependent and dose-dependent
Experimental: as §1, §2

[7] = tested on: BxPC-3 human pancreatic adenocarcinoma cell line; test: MTT assay of cell proliferation and metabolic rate; format: cell-based; settings: 3 concentrations, once a day for 4 days, time-dependent and dose-dependent
Experimental: as §1, §2

[8] = tested on: PANC-1 human pancreatic epithelioid carcinoma cell line; test: MTT assay of cell proliferation and metabolic rate; format: cell-based; settings: 3 concentrations, once a day for 4 days, time-dependent and dose-dependent
Experimental: as §1, §2

[9] = tested on: small intestine crypts of male C57BL/6J mice after 12 Gy PBI; test: Surviving crypt assay (PCNA) in small intestine on day 3.5 after 12 Gy PBI; format: in vivo, mouse; settings: 2.5 mg/kg i.p. at 24 h and 72 h, jejunum day 3.5, vs PBI plus vehicle
Experimental: FIGS. 8A-8C are photomicrographs of small intestine sections stained for Proliferating Cell Nuclear Antigen (PCNA) in sham-irradiated vehicle treated mice (FIGS. 8A), 12 Gy PBI plus vehicle treated mice (FIG. 8B), and mice treated with 12 Gy PBI and 2.5 mg/kg GGTi-2133 on (FIG. 8C). Cross-sections from three different mice are shown in each of FIG. 8A, FIG. 8B, and FIG. 8C. Each mouse received two intraperitoneal injections of either vehicle or 2.5 mg/kg GGTi: the first injection was administered 24 hours after PBI and the second one was administered 72 hours after irradiation. Intestinal tissue was harvested 84 hours after irradiation. FIG. 8D is a bar graph showing the average number of surviving crypts from two intestinal cross sections that were used for data analysis. Crypts were scored under 20× magnification. Data are represented as mean+/−SD (n=8 animals per group). The notation “a & b” refer to statistically significant difference from sham and PBI, respectively.
GGTi-2133 treatment enhances surviving crypt number on day 3.5 after PBI: Male C57BL/6J mice were exposed to 12 Gy PBI and administered GGTi-2133 (2.5 mg/kg) at 24 hours and 72 hours after irradiation. A specimen of the jejunum was collected on day 3.5 after irradiation. The presence of more than five PCNA positive cells grouped together in a crypt was recorded as a surviving crypt. […]

PANC-1 cell line = test: Clonogenic assay (colony forming ability); format: cell-based, human; settings: dose-dependent
PSN-1 cell line = test: Clonogenic assay (colony forming ability); format: cell-based, human; settings: dose-dependent
[10] = 12 Gy PBI, 5 or 10 mg/kg body weight, vs vehicle
[11] = 12 Gy PBI, i.p. 1 or 2.5 mg/kg three times per week starting 24 h after PBI, 2 weeks, vs vehicle
[12] = 12 Gy PBI, i.p. 1 or 2.5 mg/kg, vs PBI plus vehicle

SMILES: Cc1nc[nH]c1CN1CCN(C(=O)N[C@@H](CC(C)C)C(=O)O)[C@@H](Cc2ccccc2)C1=O [GGTi-2418]
- mouse equivalent of the safe human dose [1]: 660 mg/kg
- dose that can be administered safely to humans [2]: up to 2,060 mg/m^2
- dose that can be administered safely to humans, per body weight [2]: ≤ 54 mg/kg body weight

SMILES: COC(=O)[C@H](CC(C)C)NC(=O)c1ccc(NC[C@@H](N)CS)cc1-c1cccc2ccccc12 [GGTi-298]
- PBI-induced increase in crypt depth [3, 10]: attenuated
- PBI-induced increase in crypt width [3, 10]: attenuated
- PBI-induced reduction in villus height [3, 10]: attenuated

SMILES: CC(C)C[C@H](NC(=O)c1ccc(NCc2cnc[nH]2)cc1-c1cccc2ccccc12)C(=O)O [GGTi-2133]
- proliferation rate and metabolic activity (MTT) ([4]; 3 concentrations, once a day for 4 days, time-dependent and dose-dependent): suppresses
- radiation-induced decline in proliferation rate and metabolic activity ([4]; combined with 2 Gy radiation vs either treatment alone): enhances
- OLFM4 (intestinal stem cell marker) staining ([3]; 2 weeks after 12 Gy γ-ray PBI, immunohistochemistry, 1 or 2.5 mg/kg): restored
- PBI-induced body weight loss ([3]; 12 Gy PBI, 2.5 mg/kg body weight i.p., vs vehicle): significantly less
- proliferating cell number in the crypts (PCNA and Ki-67) ([3]; 12 Gy PBI, 2.5 mg/kg body weight, vs PBI plus vehicle): significantly increased
- PBI-induced decrease in mucosal surface area (MSA) [3, 11]: attenuated
- PBI-induced increase in crypt depth [3, 11]: attenuated
- PBI-induced increase in enterocyte length [3, 11]: attenuated
- PBI-induced increase in enterocyte nuclear length [3, 11]: attenuated
- PBI-induced reduction in villus height [3, 11]: attenuated
- Alcian blue staining intensity of goblet cells [3, 12]: significantly enhanced
- intraepithelial macrophage (CD68) number per villus [3, 12]: decrease
- lymphocyte (CD3ε positive) number in the intestine [3, 12]: significant recovery
- neutrophil (MPO positive) number in the intestine [3, 12]: significant recovery
- number of mucus secreting goblet cells (Alcian blue) [3, 12]: elevated
- stromal macrophage (CD68) number per villus [3, 12]: decrease
- percentage of Akkermansia muciniphila in cecal content ([5]; irradiated mice): increased
- percentage of Clostridium species in cecal content ([5]; vs PBI plus vehicle): reduced
- percentage of Turicibacter species in cecal content ([5]; vs PBI plus vehicle): reduced
- proliferation rate and metabolic activity (MTT) [6]: suppresses
- proliferation rate and metabolic activity (MTT) [7]: suppresses
- proliferation rate and metabolic activity (MTT) [8]: suppresses
- number of surviving crypts [9]: significantly (p=0.002) increased
- colony forming ability (PANC-1 cell line): suppresses
- colony forming ability (PSN-1 cell line): suppresses
